What all share (type): in vivo
One test concerns ADMA. Briefly: Circulating ADMA in plasma by immunoassay after COX-2 inhibition in mice. The following applies: wild-type mice; parecoxib 100 mg/kg in drinking water for 5 days; FIG. 1. As for the experimental part: Experiments were performed on male and female mPGES-1^−/− and their wild-type mPGES-1^+/+ littermate mice at 6-8 weeks of age. […] All mice were housed with a 12 h light/dark cycle in a climate-controlled environment, and were fed with standard rodent chow with water ad libitum. All mice experiments were conducted in line with EU directive 2010/63/EU and according to guidelines from the Swedish Veterinary board the Guide for the Care and Use of Laboratory Animals published by the US National Institutes of Health (NIH Publication No. 85-23, revised 1996). Studies were sanctioned by the Karolinska Institute ethics committee (dnr. N86_13 and N364_11), the Shantou University Institutional Animal Research and Use Committee and/or the Imperial College London Ethical Review Panel (PPL 70/7013 and 70/8422). Where indicated, wild-type (mPGES-1^+/+) mice were treated with the selective COX-2 inhibitor, parecoxib (100 mg/kg; Pfizer, USA) added to their drinking water for 5 days prior to tissue collection as we have done before (see Ahmetaj-Shala, B. et al., Circulation, 131, 633-642 (2015)).
Plasma was separated by centrifugation for the following circulating mediators measured by immunoassay: ADMA (DLD Diagnostika, Germany), PGE2 (Cisbio Bioassays, France).

A further test relates to Prmt1. Briefly: Gene expression in renal medulla (TaqMan), gene for synthesis of ADMA. The note with it: wild-type mice, parecoxib 100 mg/kg in drinking water for 5 days, FIG. 2. As for the experimental part:
(§1) Experiments were performed on male and female mPGES-1^−/− and their wild-type mPGES-1^+/+ littermate mice at 6-8 weeks of age. […] All mice were housed with a 12 h light/dark cycle in a climate-controlled environment, and were fed with standard rodent chow with water ad libitum. All mice experiments were conducted in line with EU directive 2010/63/EU and according to guidelines from the Swedish Veterinary board the Guide for the Care and Use of Laboratory Animals published by the US National Institutes of Health (NIH Publication No. 85-23, revised 1996). […]
(§2) RNA was isolated from renal medulla homogenates using a magnetic silica-bead isolation kit (Life Technologies, UK) and converted to cDNA using reverse transcriptase (Thermo Fisher Scientific, UK) with oligo(dT) primers (Life Technologies, UK). Gene expression levels were determined using TaqMan hydrolysis probes (Life Technologies, UK) recognising Prmt1 (probe ID: Mm00480133_m1 or Agxt2 (probe ID: Mm01304088_m1). Data were normalised to expression of the housekeeping genes 18S (probe ID: Mm03928990_g1) and Gapdh (probe ID: Mm99999915_g1) and relative expression compared using the comparative Ct method.
For orientation: Real-time PCR tracks product formation cycle by cycle.

The subject of another test is Agxt2. Put plainly: Gene expression in renal medulla (TaqMan), gene for degradation of ADMA. The following applies: wild-type mice, parecoxib 100 mg/kg in drinking water for 5 days, FIG. 3. As for the experimental part: as §1, §2

With `CCC(=O)NS(=O)(=O)c1ccc(-c2c(-c3ccccc3)noc2C)cc1` [parecoxib], the “plasma levels of ADMA” value with ADMA is given as “increased levels of ADMA”. Further, in the test with Prmt1, the “expression of genes responsible for synthesis of ADMA (Prmt1)” value was “increased expression of genes responsible for synthesis of ADMA (Prmt1)”. The “expression of genes responsible for degradation of ADMA (Agxt2)” value in the test with Agxt2 is “increased expression of genes responsible for degradation of ADMA (Agxt2)”.

The values above are taken from patent US20220218670A1, “METHODS OF TREATING DISEASES CHARACTERISED BY VASOCONSTRICTION” (Gesynta Pharma AB, priority 2016, published 2022).
